Patent publication US8012944B2, “Method for treating cancer using IAP antisense oligomer and chemotherapeutic agent” (Pharmascience Inc., priority 2003, dated 2011)

Assays:
[1] = test system: XIAP mRNA; experiment: XIAP mRNA knock-down in H460 cells (real-time RT-PCR / TaqMan); assay type: cell-based, human; conditions: 2 × 2 MBO; NCI-H460 cells, 9 hours post-transfection; relative level (mock control 1.01)
[2] = test system: pro-caspase-3, PARP; experiment: Pro-caspase-3 and PARP protein in H460 cells (western blot); assay type: cell-based, human; conditions: 1.2 μM
Experimental: One day prior to transfection, H460 cells were plated in 6- or 96-well tissue culture plates. Phosphorothioate antisense oligonucleotides were delivered into cells with Lipofectamine 2000 (Life Technologies) in the form of liposome-oligonucleotide complexes. Following a 4.5 or 6 h transfection, the transfection medium was replaced with RPMI medium containing 10% FBS, and the cells incubated for another 24 or 48 h.
The cells or tumor tissue samples were lysed with ice-cold lysis buffer (50 mM Tris, 150 mM NaCl, 2.5 mM EDTA, 0.1% SDS, 0.5% sodium deoxycholate, 1% NP-40, 0.02% sodium azide) containing protease inhibitors (Complete-Mini protease inhibitor tablets; Boehringer Mannheim GmBH, Mannheim, Germany). After incubation for 30 min on ice, samples were centrifuged at 10,000 rpm for 15 min, and stored at −20° C. Protein content in the lysed extracts was determined using a detergent-compatible Bio-Rad assay (Bio-Rad Labs, Hercules, Calif.). Equal amounts of protein (40 μg/lane) were separated on 12% SDS-polyacrylamide gels or 4-15% gradient SDS-polyacrylamide pre-made gels (Bio-Rad) and transferred to nitrocellulose membranes. Primary antibodies against XIAP, Bcl-2 (DAKO, Glostrup, Denmark), Bax (Sigma, St. Louis, Mo.), β-actin (Sigma), caspase-3 (BD PharMingen, San Diego, Calif.), and PARP (BD PharMingen) were used. The secondary antibody was the appropriate horseradish-conjugated anti-mouse or anti-rabbit IgG (Promega, Madison, Wis.). Proteins were detected by enhanced chemiluminescence (ECL; Amersham Pharmacia Biotech, Buckinghamshire, England) and visualized after exposure to Kodak autoradiography film. Scanning densitometry (Molecular Dynamics, Sunnyvale, Calif.) was performed to quantify band intensities by volume/area integration. The amount of XIAP, caspase-3, Bcl-2 and Bax in cells was normalized to their respective lane β-actin levels, upon stripping and reprobing.

[3] = test system: H460 cells; experiment: Apoptotic flow cytometric assay (PI staining, hypo-diploid DNA content); assay type: cell-based, human; conditions: 1.2 μM, untreated control 16.6%
Experimental: Cells were treated with liposome-oligonucleotide complexes for 4.5 h, and incubated for another 48 h in the medium without transfection reagent at 37° C. Following incubation, cells were harvested, washed twice with sample buffer (0.5% glucose in PBS without Ca^++ and Mg^++), and fixed in cold 70% ethanol at 4° C. for at least 18 hrs. Samples were centrifuged at 3000 rpm for 10 min, then resuspended in sample buffer containing 50 μg/ml propidium iodide (PI) and 400 U/ml RNase A. Samples were incubated for 30 min at room temperature and 30 min on ice, followed by flow cytometry analysis. EXPO Software (Applied Cytometry Systems, Sacramento, Calif.) was used to generate histograms, which were used to determine the cell cycle phase distribution after debris exclusion. The Sub G1/G0 cell fraction was considered as representative for apoptotic cells.

[4] = test system: H460 tumors; experiment: Histopathology and ubiquitin immunohistochemistry of H460 tumors; assay type: in vivo, SCID-RAG2 mice; conditions: 15 mg/kg; day 21 or 24
Experimental: To evaluate whether XIAP AS oligonucleotide administration results in direct tumor cell kill, we examined the histology of tumors after treatment both for morphology and ubiquitin immunostaining (FIGS. 19A and 19B). At day 21 or 24 post-tumor inoculation, tumors treated with 15 mg/kg of G4 AS oligonucleotides, SC oligonucleotides, or saline control were excised, sectioned, and stained with hematoxylin and eosin.
The degradation of proteins is largely ubiquitin-proteasome-dependent; increased ubiquitin expression has been observed during apoptosis. Thus, we examined the ubiquitin expression in the tumors sections used for hematoxylin and eosin staining.
Mouse tumors were collected on day 21 or 24 post-tumor inoculation and treatment. One portion of the tumor tissue was fixed in formalin. Paraffin-embedded tissues were sectioned and subjected to gross histopathology using hematoxylin and eosin staining and immunohistochemistry for ubiquitin expression. The other portion of the tumor was homogenized in lysis buffer for western blot analysis (see above).

## GCTGAGTCTCCATATTGCC [G4 AS] (chemistry not given here)
[1]
  XIAP RNA: 0.48
[2]
  reduction of pro-caspase-3 protein levels compared to untreated control: 60%
[3]
  hypo-diploid DNA content of cells: 40.8%
[4]
  tumor histology (hematoxylin and eosin): increased number of dead cells
